# Reference: ChEMBL document CHEMBL3244292, “Imidazo[4,5-f]quinolines. 2. A series of 9-(substituted amino)imidazo[4,5-f]quinolines as antitapeworm agents” (1977)
# Active and inactive are the calls of the source. The calls are words filed in the database; no cut-off is given here.
# What was measured:
# Format in all cases: functional
# Rodentolepis nana [1] = assay: Anthelmintic activity against Hymenolepis nana infected in mouse assessed as reduction in worm burden at 100 mg/kg administered bid for 3 days relative to control; set-up: scale not given: the % may be the effect or the level left
# Rodentolepis nana [2] = assay: Anthelmintic activity against Hymenolepis nana infected in mouse assessed as reduction in worm burden at 50 mg/kg administered bid for 3 days relative to control
# Rodentolepis nana [3] = assay: Anthelmintic activity against Hymenolepis nana infected in mouse assessed as reduction in worm burden at 25 mg/kg administered bid for 3 days relative to control
# Rodentolepis nana [4] = assay: Anthelmintic activity against Hymenolepis nana infected in mouse assessed as reduction in worm burden at 300 mg/kg administered bid for 3 days relative to control; set-up: scale not given: the % may be the effect or the level left
SMILES,Activity (Rodentolepis nana [1]),Activity (Rodentolepis nana [2]),Activity (Rodentolepis nana [3]),Activity (Rodentolepis nana [4])
COc1ccccc1Nc1cc(C)nc2ccc3nc[nH]c3c12,66%,inactive,,
Cc1cc(Nc2ccc(Cl)c(Cl)c2)c2c(ccc3nc[nH]c32)n1,65%,inactive,,
COc1cc(OC)c(Nc2cc(C)nc3ccc4nc[nH]c4c23)cc1Cl,85%,82%,inactive,
CCOc1ccc(OCC)c(Nc2cc(C)nc3ccc4nc[nH]c4c23)c1,100%,100%,inactive,
Cc1cc(Nc2ccccc2)c2c(ccc3nc[nH]c32)n1,40%,,,
Cc1cc(Nc2ccc(OCc3ccccc3)cc2)c2c(ccc3nc[nH]c32)n1,81%,64%,,
Cc1cc(Nc2ccc(C(C)C)cc2)c2c(ccc3nc[nH]c32)n1,100%,53%,inactive,
CC(=O)c1cccc(Nc2cc(C)nc3ccc4nc[nH]c4c23)c1,96%,inactive,,
COc1ccc(Nc2cc(C)nc3ccc4nc[nH]c4c23)cc1,64%,inactive,,
CCOc1ccc(OC)cc1Nc1cc(C)nc2ccc3nc[nH]c3c12,100%,76%,inactive,
CCOc1cc(OCC)c(OCC)cc1Nc1cc(C)nc2ccc3nc[nH]c3c12,89%,80%,inactive,
COc1ccc(Nc2cc(-c3ccccc3)nc3ccc4nc[nH]c4c23)cc1,66%,inactive,,
Cc1cc(Nc2cccc(N(C)C)c2)c2c(ccc3nc[nH]c32)n1,100%,87%,inactive,
COc1ccc(Nc2cc(C)nc3ccc4nc(C)[nH]c4c23)cc1,inactive,,,100%
Cc1cc(Nc2ccc3c(c2)OCO3)c2c(ccc3nc[nH]c32)n1,inactive,,,100%
CCN(CC)c1ccc(Nc2cc(C)nc3ccc4nc[nH]c4c23)cc1,79%,inactive,,
Cc1cc(Nc2cccc(Nc3ccccc3)c2)c2c(ccc3nc[nH]c32)n1,inactive,,,81%
Cc1cc(Nc2cccc(Nc3ccc(N4CCN(C)CC4)nc3)c2)c2c(ccc3nc[nH]c32)n1,inactive,,,64%
Cc1cc(Nc2ccc(Cl)c(C(F)(F)F)c2)c2c(ccc3nc[nH]c32)n1,84%,87%,inactive,
CCOc1ccc(Nc2cc(C)nc3ccc4nc[nH]c4c23)cc1OCC,100%,84%,inactive,
Cc1cc(Nc2ccc(Cl)cc2C)c2c(ccc3nc[nH]c32)n1,100%,inactive,,
CCCCc1ccc(Nc2cc(C)nc3ccc4nc[nH]c4c23)cc1Cl,100%,100%,65%,
Cc1cc(Nc2ccc(N3CCCC3)c(Cl)c2)c2c(ccc3nc[nH]c32)n1,100%,46%,inactive,
CCCCOc1ccc(Nc2cc(C)nc3ccc4nc[nH]c4c23)cc1OCCCC,100%,95%,inactive,

SMILES,Activity (Rodentolepis nana [1]),Activity (Rodentolepis nana [2]),Activity (Rodentolepis nana [3]),Activity (Rodentolepis nana [4])
Cc1cc(Nc2cccc(C(F)(F)F)c2)c2c(ccc3nc[nH]c32)n1,inactive,,,100%
Cc1cc(Nc2ccc(N(C)C)c(Cl)c2)c2c(ccc3nc[nH]c32)n1,71%,inactive,,
Cc1ccc(Nc2cc(C)nc3ccc4nc[nH]c4c23)cc1,inactive,,,100%
CCCCOc1ccc(Nc2cc(C)nc3ccc4[nH]cnc4c23)cc1,inactive,,,100%
Cc1cc(Nc2ccc(I)cc2)c2c(ccc3nc[nH]c32)n1,84%,inactive,,
CCCC(=O)c1ccc(Nc2cc(C)nc3ccc4nc[nH]c4c23)cc1,inactive,,,100%
CCOc1ccc(Nc2cc(C)nc3ccc4nc[nH]c4c23)cc1,100%,inactive,,
CCCCCOc1ccc(Nc2cc(C)nc3ccc4nc[nH]c4c23)cc1OCCCCC,63%,inactive,,
Cc1cc(Nc2ccc(Oc3ccccc3)cc2)c2c(ccc3nc[nH]c32)n1,100%,66%,inactive,
Cc1cc(Nc2ccccc2-c2ccccc2)c2c(ccc3nc[nH]c32)n1,inactive,,,100%
COc1ccc(OC)c(Nc2cc(C)nc3ccc4nc[nH]c4c23)c1,100%,inactive,,
COc1cc(Nc2cc(C)nc3ccc4nc[nH]c4c23)cc(OC)c1OC,70%,inactive,,
Cc1cc(Nc2ccc(C)c(Cl)c2)c2c(ccc3nc[nH]c32)n1,94%,90%,inactive,
Cc1cc(Nc2ccc(F)c(Cl)c2)c2c(ccc3nc[nH]c32)n1,82%,inactive,,
Cc1cc(Nc2cccc3ccccc23)c2c(ccc3nc[nH]c32)n1,100%,inactive,,
Cc1cc(Nc2ccc(-c3ccccc3)cc2)c2c(ccc3nc[nH]c32)n1,100%,94%,inactive,
Cc1cc(Nc2ccc(N3CCN(C)CC3)c(Cl)c2)c2c(ccc3nc[nH]c32)n1,inactive,,,100%
CCOc1cc(Nc2cc(C)nc3ccc4nc[nH]c4c23)c(OCC)cc1Cl,100%,100%,inactive,
COc1ccc(Nc2cccc(Nc3cc(C)nc4ccc5nc[nH]c5c34)c2)cn1,100%,94%,inactive,
Cc1cc(Nc2ccc(OC(C)C)c(OC(C)C)c2)c2c(ccc3nc[nH]c32)n1,100%,94%,inactive,
Cc1cc(Nc2cccc(Cl)c2C)c2c(ccc3nc[nH]c32)n1,100%,94%,inactive,
COc1ccc(Nc2cc(C)nc3ccc4nc[nH]c4c23)cc1OC,73%,inactive,,
CSc1ccccc1Nc1cc(C)nc2ccc3nc[nH]c3c12,inactive,,,93%
CSc1ccc(Nc2cc(C)nc3ccc4nc[nH]c4c23)cc1,100%,62%,,

SMILES,Activity (Rodentolepis nana [1]),Activity (Rodentolepis nana [2]),Activity (Rodentolepis nana [3]),Activity (Rodentolepis nana [4])
Cc1cc(Nc2ccc(/N=N\c3ccccc3)cc2)c2c(ccc3nc[nH]c32)n1,inactive,,,100%
CCCCc1ccc(Nc2cc(-c3ccccc3)nc3ccc4nc[nH]c4c23)cc1,inactive,,,69%
COc1ccc(Nc2cc(C)nc3ccc4nc(-c5ccccc5)[nH]c4c23)cc1,94%,inactive,,
COc1cccc(Nc2cc(C)nc3ccc4[nH]cnc4c23)c1,73%,inactive,,
Cc1cc(Nc2ccc(N3CCCCC3)c(Cl)c2)c2c(ccc3nc[nH]c32)n1,100%,80%,inactive,
CSc1cccc(Nc2cc(C)nc3ccc4nc[nH]c4c23)c1,100%,inactive,,
Cc1cc(Nc2cccc(Nc3ccc(N4CCCCC4)nc3)c2)c2c(ccc3nc[nH]c32)n1,inactive,,,100%
CCCCc1ccc(Nc2cc(C)nc3ccc4[nH]cnc4c23)cc1,inactive,,,100%
CCc1cc(Nc2ccc(OC)cc2)c2c(ccc3nc[nH]c32)n1,46%,inactive,,
CCC(C)c1ccc(Nc2cc(C)nc3ccc4nc[nH]c4c23)cc1 (configuration not stated),100%,inactive,,
Cc1cc(Nc2ccc(C)c([N+](=O)[O-])c2)c2c(ccc3nc[nH]c32)n1,inactive,,,83%
COc1cc(Cl)ccc1Nc1cc(C)nc2ccc3nc[nH]c3c12,52%,inactive,,
Cc1cc(Nc2ccc3ccccc3c2)c2c(ccc3nc[nH]c32)n1,72%,inactive,,
Cc1ccc(Cl)c(Nc2cc(C)nc3ccc4nc[nH]c4c23)c1,inactive,,,98%
CCOc1ccc(Nc2cc(C)nc3ccc4nc[nH]c4c23)cc1Cl,100%,50%,inactive,
CCC(=O)c1ccc(Nc2cc(C)nc3ccc4nc[nH]c4c23)cc1,75%,78%,inactive,
CCc1ccc(Nc2cc(C)nc3ccc4nc[nH]c4c23)cc1Cl,100%,93%,inactive,
Cc1cc(Nc2ccc(Br)cc2)c2c(ccc3nc[nH]c32)n1,61%,inactive,,
Cc1cc(Nc2ccc(N(C)C)cc2)c2c(ccc3nc[nH]c32)n1,100%,inactive,,
COc1ccc(CNc2cccc(Nc3cc(C)nc4ccc5nc[nH]c5c34)c2)cc1,inactive,,,60%
CCN(CC)CCOc1ccc(Nc2cc(C)nc3ccc4nc[nH]c4c23)cc1,inactive,,,100%
Cc1cc(Nc2ccc(N3CCN(C)CC3)cc2)c2c(ccc3nc[nH]c32)n1,inactive,,,80%
Cc1cc(Nc2ccc(N3CCCCC3)cc2)c2c(ccc3nc[nH]c32)n1,64%,62%,inactive,
CCOc1ccc(OC)c(Nc2cc(C)nc3ccc4nc[nH]c4c23)c1,100%,89%,inactive,
